Assay results as given in US20260250257A1, “ANTIBACTERIAL AND SYNERGISTIC ACTIVE COMPOUND AND USE THEREOF” (EAST CHINA UNIVERSITY OF SCIENCE AND TECHNOLOGY, priority 2023, published 2026).
≈ marks a conversion by molar mass, not a printed value.

Key:
Format in all cases: cell-based
[1] = test system: ATCC13883 strain (Klebsiella pneumoniae); assay: Checkerboard antibacterial synergistic activity test with polymyxin E (FIC); design: key: FIC≤0.5 synergy; 0.5–1 additive; 1–2 indifferent; ≥2 antagonism; conditions: combined with polymyxin E
Outline: (§1)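 Checkerboard in MH broth: colistin dilutions 16→0.015 μg/ml × test drug 256→4 μg/ml (concentrations before adding inoculum); drug mix plus bacteria, 37° C., 16 h. FIC cut-offs: ≤0.5 synergy; 0.5–1 additive; 1–2 indifferent; ≥2 antagonism.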

[2] = test system: ATCC19606 strain (Acinetobacter baumannii); assay: as above; design: key: FIC≤0.5 synergy; 0.5–1 additive; 1–2 indifferent; ≥2 antagonism; conditions: combined with polymyxin E
Outline: as §1

[3] = test system: ATCC25922 strain (Escherichia coli); assay: as above; design: key: FIC≤0.5 synergy; 0.5–1 additive; 1–2 indifferent; ≥2 antagonism; conditions: combined with polymyxin E
Outline: as §1

[4] = test system: ATCC9027 strain (Pseudomonas aeruginosa); assay: as above; design: key: FIC≤0.5 synergy; 0.5–1 additive; 1–2 indifferent; ≥2 antagonism; conditions: combined with polymyxin E
Outline: as §1

[5] = test system: ATCC13883 strain (Klebsiella pneumoniae); assay: Broth microdilution, antibacterial activity of the compound used alone
Text: (§2) The broth microdilution method was used to test the antibacterial effects of the compounds of the present invention against various Gram-negative bacterial strains when used alone.

[6] = test system: ATCC19606 strain (Acinetobacter baumannii); assay: as above
Text: as §2

[7] = test system: ATCC25922 strain (Escherichia coli); assay: as above
Text: as §2

[8] = test system: ATCC9027 strain (Pseudomonas aeruginosa); assay: as above
Text: as §2

| MIC ([5]; read-out: Antibacterial activity of the compound of Formula I, ATCC13883) [µg/mL] | MIC ([6]; read-out: Antibacterial activity of the compound of Formula I, ATCC19606) [µg/mL] | MIC ([7]; read-out: Antibacterial activity of the compound of Formula I, ATCC25922) [µg/mL] | MIC ([8]; read-out: Antibacterial activity of the compound of Formula I, ATCC9027) [µg/mL] | SMILES | Synergistic activity (FIC value) ATCC13883 [1] | Synergistic activity (FIC value) ATCC19606 [2] | Synergistic activity (FIC value) ATCC25922 [3] | Synergistic activity (FIC value) ATCC9027 [4] | Antibacterial activity of the compound of Formula I, ATCC13883 [5] [µg/mL] | Antibacterial activity of the compound of Formula I, ATCC19606 [6] [µg/mL] | Antibacterial activity of the compound of Formula I, ATCC25922 [7] [µg/mL] | Antibacterial activity of the compound of Formula I, ATCC9027 [8] [µg/mL] |
| --- | --- | --- | --- | --- | --- | --- | --- | --- | --- | --- | --- | --- |
| – | – | – | – | NC(N)=Nc1nc(-c2ccccc2OCc2ccccc2)cs1 [Compound I-7] | 0.51 | 0.16 | 0.51 | 0.75 | 256 | 256 | 256 | 256 |
| – | – | – | – | Cc1sc(N=C2NCCCN2)nc1-c1cc(I)cc(I)c1 [Compound I-182] | 0.31 | 0.25 | 0.56 | 0.5 | 256 | 256 | 256 | 256 |
| – | – | – | – | Cc1ccc2cccc(-c3nc(N=C(N)N)oc3C)c2c1 [Compound I-58] | 0.25 | 0.28 | 0.5 | 0.63 | 256 | 256 | 256 | 256 |
| – | – | – | – | Cc1sc(N=C(N)N)nc1-c1ccc(Cl)cc1Oc1ccc(Cl)cc1Cl [Compound I-89] | 0.13 | 0.02 | 0.15 | 0.18 | 256 | 256 | 256 | 256 |
| – | – | – | – | Fc1ccc(-c2csc(N=C3NCCCN3)n2)c(Oc2ccc(Cl)cc2Cl)c1 [Compound I-151] | 0.16 | 0.03 | 0.18 | 0.28 | 256 | 256 | 256 | 256 |
| – | – | – | – | CC(C)=CCOc1ccccc1-c1csc(N=C(N)N)n1 [Compound I-46] | 0.25 | 0.31 | 0.27 | 0.52 | 256 | 256 | 256 | 256 |
| – | – | – | – | Clc1cccc(-c2csc(N=C3NCCCN3)n2)c1Cl [Compound I-184] | 0.25 | 0.28 | 0.5 | 0.63 | 256 | 256 | 256 | 256 |
| – | – | – | – | CCOC(=O)c1ccc(-c2c[nH]c(N=C(N)N)n2)cc1 [Compound I-25] | 0.31 | 0.13 | 0.38 | 0.53 | 256 | 256 | 256 | 256 |
| – | – | – | – | Cc1ccc2c(-c3coc(N=C(N)N)n3)cccc2c1 [Compound I-59] | 0.33 | 0.15 | 0.39 | 0.62 | 256 | 256 | 256 | 256 |
| – | – | – | – | NC(N)=Nc1nc(-c2cccc3cccc(Cl)c23)c(Cl)s1 [Compound I-62] | 0.52 | 0.52 | 0.63 | 1.25 | 128 | 256 | 128 | 64 |
| – | – | – | – | NC(N)=Nc1nc(-c2ccc(OS(N)(=O)=O)cc2)co1 [Compound I-29] | 1.25 | 0.26 | 1.25 | 1.25 | 256 | 256 | 256 | 256 |
| – | – | – | – | NC(N)=Nc1nc(-c2cccc3cccnc23)co1 [Compound I-67] | 1.25 | 0.5 | 0.63 | 1.25 | 256 | 256 | 256 | 256 |
| 256 (≈ 969 µM) | 256 (≈ 969 µM) | 256 (≈ 969 µM) | 256 (≈ 969 µM) | NC(N)=Nc1nc(-c2ccc(O)c(CO)c2)cs1 [Compound I-121] | 1.25 | 1.25 | 0.56 | 1.25 | – | – | – | – |
| – | – | – | – | O=C(Nc1cccc(-c2coc(N=C3NCCCN3)n2)c1)Nc1ccc(Cl)cc1Cl [Compound I-200] | 0.53 | 0.25 | 1.25 | 0.53 | 256 | 256 | 256 | 256 |
| – | – | – | – | NC(N)=Nc1nc(-c2cccc3ccccc23)cs1 [Compound I-55] | 0.31 | 0.13 | 0.38 | 0.53 | 256 | 256 | 256 | 256 |
